# Target: T1, FLuc-C-HiBiT (Photinus pyralis, UniProt P08659)
# T1 construct: firefly luciferase with C-terminal HiBiT tag, E. coli expressed
# Assay: biochemical
# Details: enzyme activity, 10 uM ATP; read-out: IC50 or SDR50 (mM) / FLuc E
# T1 sequence (P08659 whole entry, looked up): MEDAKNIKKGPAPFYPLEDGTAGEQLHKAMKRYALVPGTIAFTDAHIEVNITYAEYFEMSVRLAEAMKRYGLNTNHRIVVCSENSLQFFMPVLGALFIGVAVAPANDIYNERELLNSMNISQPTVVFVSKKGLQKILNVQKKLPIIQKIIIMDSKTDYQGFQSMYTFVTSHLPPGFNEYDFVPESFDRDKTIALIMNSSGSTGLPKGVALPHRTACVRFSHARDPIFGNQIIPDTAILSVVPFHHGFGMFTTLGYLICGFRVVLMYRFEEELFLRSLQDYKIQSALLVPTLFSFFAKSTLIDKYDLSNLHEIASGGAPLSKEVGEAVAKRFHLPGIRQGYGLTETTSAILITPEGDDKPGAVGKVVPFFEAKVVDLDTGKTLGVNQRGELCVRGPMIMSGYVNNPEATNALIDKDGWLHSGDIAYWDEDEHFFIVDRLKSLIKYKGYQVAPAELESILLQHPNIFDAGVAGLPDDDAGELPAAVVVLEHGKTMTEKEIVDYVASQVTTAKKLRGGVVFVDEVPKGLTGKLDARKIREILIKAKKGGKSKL
row,Compound,IC50
1,Cc1c(-c2ccccc2F)[nH]c2ccc(CNC(=O)CCc3cc(O)no3)cc12 [NCGC00437347-01],9.89 µM
2,Cc1ccc(-n2nc(C)c([C@@H]3C=C[C@@H](NC(=O)COCC(=O)O)C3)c2C)cc1Cl [NCGC00401616-01],> 30 µM
3,CSc1ccc(/C=C/c2nc3ccccc3n2[S+](=O)([O-])c2ccc(F)c(C)c2)cc1 [NCGC00139450-01],0.7 µM
4,Cc1c(C(=O)NCc2cccc(Br)c2)oc2ccc3c(c12)C(=O)CC(C)(C)O3 [NCGC00113428-01],11.1 µM
5,Cc1cc(-c2nc3ccccc3s2)ccc1NC(=O)c1cc(Cl)ccc1Cl [NCGC00102363-01],> 30 µM
6,Cc1ccc(F)cc1-c1ccc(COc2ccc3c(cnn3CCC(=O)O)c2)cc1 [NCGC00418121-01],18 µM
7,COc1cccc(C(=O)Nc2ccc3nc(SCC(=O)N4CCOCC4)sc3c2)c1 [NCGC00118677-01],9.89 µM
8,CCOCC(=O)N1c2ccccc2CC1c1noc(C(C)C)n1 (centres unmarked) [NCGC00471496-01],12.4 µM
9,COC(=O)[C@@H]1C[C@H](NC(=O)c2ccc(Oc3ccccc3)cc2)CN1C [NCGC00433761-01],15.7 µM
10,CN1c2cc(C(=O)Nc3cccc(Cl)c3)ccc2C(=O)N2CCCCCC21 (centres unmarked) [NCGC00452209-01],17.6 µM
11,COc1ccc(CNC(=O)C[C@@H]2C[C@@H](C(C)C)[C@H](CNC(=O)c3cccnc3)C=C2C)cc1 [NCGC00394780-01],> 30 µM
12,CCNC(=O)C1C(c2cccc(NC(=O)c3ccc(C)cc3)c2)OC(=O)N1Cc1ccc(F)cc1 (centres unmarked) [NCGC00473984-01],1.76 µM
13,CCOc1ccc2nc(NC(=O)c3ccccc3)sc2c1 [NCGC00099426-02],0.881 µM
14,CC(=O)N[C@@H]1C=C[C@@H](c2c(C)nn(-c3ccc(C(F)(F)F)cc3)c2C)C1 [NCGC00400353-01],16.1 µM
15,CCC(=O)Nc1ccc2nnc(-c3ccc(C(=O)Nc4ccc5c(c4)OCCO5)cc3)n2c1 [NCGC00429833-01],8.81 µM
16,Clc1cccc(Nc2cc3c(cn2)CN(Cc2cccnc2)CCN3)c1 [NCGC00411094-01],12.8 µM
17,Cc1nn(-c2ccc(C(C)C)cc2)c(C)c1[C@@H]1C=C[C@@H](NC(=O)COCC(=O)O)C1 [NCGC00401626-01],20.2 µM

row,Compound,IC50
1,CCOC(=O)c1cc(-c2ccccc2)nn1Cc1ccccc1 [NCGC00108381-01],> 30 µM
2,COc1ccc2nc(-c3ccc(Oc4ccccc4)cc3)sc2c1 [NCGC00167605-01],11.1 µM
3,Cc1ccc2[nH]c([C@H]3CCN(C(C)C)C3)nc2c1 [NCGC00391182-01],25.4 µM
4,COc1ccc2c(c1)C1(CCN(C(=O)Nc3ccc4c(c3)OCCO4)C1)C(=O)N2C (centres unmarked) [NCGC00435246-01],11.1 µM
5,O=C(Nc1ccccc1-c1nc2ccccc2s1)c1ccc(F)cc1 [NCGC00102555-01],> 30 µM
6,Cc1cc(-c2nc3cc(F)ccc3s2)ccc1N [NCGC00402259-04],1.11 µM
7,O=C(Nc1cccc(-c2ccc(N3CCOCC3)nn2)c1)Nc1cccc(Cl)c1F [NCGC00427620-01],5.56 µM
8,Cc1ccc(Cc2cn3cc(-c4ccccc4)nc3s2)cc1 [NCGC00102098-01],0.442 µM
9,COc1ccc(C(=O)Nc2noc3ccccc23)cc1 [NCGC00115156-01],0.881 µM
10,CCOc1ccc(Nc2nc(-c3ccccc3)no2)cc1 [NCGC00422297-01],4.95 µM
11,CCCN1CCNc2cc(Nc3ccccc3)ncc2C1 [NCGC00411254-01],25.4 µM
12,O=C(Nc1nn(-c2cccc(F)c2)c2cccc(N3CCOCC3)c12)C1CCC1 [NCGC00440498-01],11.1 µM
13,COc1ccc(C(=O)Nc2cc(C)c(O)c(-c3nc4ccccc4s3)c2)cc1OC [NCGC00103306-01],1.4 µM
14,Cc1ccc(-n2ncc3c(N4CCC(Cc5ccccc5)CC4)ncnc32)cc1 [NCGC00139020-01],> 30 µM
15,O=C(NCC1CCCN(C(=O)N2CCCC2)C1)c1ccc(-c2ccccc2)cc1 (centres unmarked) [NCGC00444515-01],12.4 µM
16,COc1ccc(-c2nc3ncccc3[nH]2)cc1 [NCGC00375673-01],16 µM
17,COc1ccc(CC(=O)Nc2ccc(-c3nc4ccccc4s3)cc2Cl)cc1OC [NCGC00137804-01],> 30 µM

# The remaining lines, values ahead:
row,IC50,Compound
1,0.0989 µM,CN(C(=O)OC(C)(C)C)c1ccc(-c2nc3ccccc3s2)cc1 [NCGC00167619-02]
2,2.79 µM,CCc1cccc(NC(=O)c2cc(-c3ccccc3)n[nH]2)c1 [NCGC00125661-01]
3,4.95 µM,COc1ccc(-c2cc3c(=O)n(CCNC(=O)c4c(F)cccc4F)ccn3n2)cc1 [NCGC00456908-01]
4,11.1 µM,O=C1Nc2ccc(C(=O)c3ccco3)cc2C1=Cc1cc(Cl)c(O)c(Cl)c1 [NCGC00242150-05]
5,12.4 µM,CCOC(=O)c1ccc(NC2SC(=O)N(Cc3cccc(C(=O)O)c3)C2=O)cc1 (centres unmarked) [NCGC00099894-01]
6,0.007 µM,O=C(O)c1cccc(-c2noc(-c3cccc(F)c3)n2)c1 [NCGC00168760-01]
7,> 30 µM,O=C(Nc1cccc(-c2nc3ccccc3s2)c1)c1cc2ccccc2oc1=O [NCGC00688715-01]
8,0.624 µM,Cc1ccc(-c2nc(-c3ccccn3)no2)cc1Cl [NCGC00070724-01]
9,18 µM,O=C1CC2(CCN(CC3CC3)CC2)Oc2cc(Cl)ccc21 [NCGC00476866-01]
10,1.61 µM,COCC(=O)Nc1nc2c(s1)C[C@]1(C)CC[C@@H]3[C@H](OC(=O)[C@H]3C)[C@H]1[C@@H]2C [NCGC00391224-01]
11,> 30 µM,COc1cccc(C(=O)Nc2ccc(O)c(-c3nc4ccccc4s3)c2)c1 [NCGC00594707-01]
12,5.56 µM,COc1ccc(CCNC(=O)C2CCCN(c3nc4c(C)cc(C)cc4s3)C2)cc1OC (centres unmarked) [NCGC00113075-01]
13,8.81 µM,Cc1nc2cc(-c3cccc(F)c3)nn2c(C)c1CCC(=O)NC1CCCCC1 [NCGC00110095-01]
14,> 30 µM,OCC1(CC2CC2)CCCN(c2nc(-c3ccccc3)no2)C1 (centres unmarked) [NCGC00440394-01]
15,> 30 µM,COc1ccc(CC(=O)Nc2ccc(-c3nc4ccccc4s3)c(C)c2)cc1OC [NCGC00137832-01]
16,15.7 µM,Cc1ccc2nc(C(=O)N3CCCC3c3cc(C(C)C)on3)cn2c1 (centres unmarked) [NCGC00437737-01]
17,5.56 µM,Cc1c(-c2ccccc2F)[nH]c2ccc(CNC(=O)C3CCCN(C(N)=O)C3)cc12 (centres unmarked) [NCGC00429038-01]
18,11.1 µM,Cc1ccc(NC(=O)CCc2c(C)nc3cc(-c4ccccc4)nn3c2C)cc1F [NCGC00109926-01]
19,7.18 µM,C[C@@H]1C(=O)O[C@H]2[C@H]1CC[C@@]1(C)Cc3sc(NCc4ccccc4)nc3[C@@H](C)[C@H]21 [NCGC00391358-01]
20,> 30 µM,COc1ccc(C(=O)Nc2ccc(-c3nc4ccccc4s3)cc2C)cc1Cl [NCGC00102365-01]
21,18 µM,Cc1ccc(-n2nc(C)c([C@@H]3C=C[C@@H](NC(=O)NCc4ccccc4)C3)c2C)cc1Cl [NCGC00399961-01]
22,> 30 µM,COc1ccc(-c2nc3ccccc3s2)cc1NC(=O)COc1ccc(C)cc1 [NCGC00103030-01]
23,> 30 µM,Cc1cc(C)n(CCC(=O)N2CCC(Cc3noc(C4CC4)n3)C2)n1 (centres unmarked) [NCGC00443208-01]
24,1.24 µM,CCC(C)NC(=O)Cn1c(C)ccc(NC(=O)Nc2ccc(C)cc2)c1=O (centres unmarked) [NCGC00430780-01]
25,3.51 µM,CCOc1ccc(-c2cc3c(=O)n(CCNC(=O)c4ccncc4)ccn3n2)cc1 [NCGC00456950-01]

row,IC50,Compound
1,14.3 µM,Cc1cnc(NC(=O)c2ccc3c(c2)OCC(=O)N(C)C3)s1 [NCGC00418511-01]
2,11.1 µM,Cc1ccc(NCc2nc3ccccc3n2CCOc2ccccc2)cc1 [NCGC00104457-01]
3,9.89 µM,COc1ccc(-c2cc(N3CCCC(NC(=O)c4cc(OC)cc(OC)c4)C3)[nH]n2)cc1 (centres unmarked) [NCGC00437618-01]
4,2.48 µM,O=C(O)c1ccc(-c2ccc(N3CCCCCC3)nc2)cc1 [NCGC00432679-01]
5,> 30 µM,O=c1oc2c(CN3CCCC3)c(O)ccc2cc1-c1ccccc1 [NCGC00134332-01]
6,8.81 µM,CC(C)c1ccc(NC(=O)O[C@@H]2CO[C@H]3[C@@H]2OC[C@@H]3N[S+](=O)([O-])c2cccs2)cc1 [NCGC00399549-01]
7,0.124 µM,CC1CCCN(c2ncnc3c2cnn3-c2ccc(Cl)cc2)C1 (centres unmarked) [NCGC00081383-02]
8,16.1 µM,O=C(O)CCn1ncc2cc(OCc3ccc(-c4cccc(CO)c4)cc3)ccc21 [NCGC00418123-01]
9,0.197 µM,Cc1ccc(-c2nc(-c3ccccc3)no2)c(Cl)c1 [NCGC00085930-01]
10,2.48 µM,Cc1ccc2nc(-c3ccc(N)cc3)sc2c1[S+](=O)([O-])O [NCGC00091147-01]
11,1.76 µM,c1coc(-c2nc3nccc(-c4ccc5c(c4)OCCCO5)n3n2)c1 [NCGC00424571-01]
12,12.4 µM,CCc1ccc2oc(-c3cccc(NC(=O)c4cc5ccccc5o4)c3)nc2c1 [NCGC00098909-01]
13,> 30 µM,O=C(NCCC1CCN(C(=O)Nc2cc(F)cc(F)c2)CC1)c1ccc(F)cc1 [NCGC00425011-01]
14,0.453 µM,C[C@@H]1C(=O)O[C@H]2[C@H]1CC[C@@]1(C)Cc3sc(Nc4cccnc4)nc3[C@@H](C)[C@H]21 [NCGC00421621-01]
15,3.94 µM,CCOc1ccc(-c2cc3c(=O)n(CCNC(=O)c4cccc(N(C)C)c4)ccn3n2)cc1 [NCGC00456949-01]
16,1.57 µM,COc1ccc(-c2nc3ccccc3s2)cc1NC(=O)c1cc(OC)c(OC)c(OC)c1 [NCGC00102099-01]
17,18 µM,Cc1nc[nH]c1CN1CCNc2cc(Nc3ccccc3)ncc2C1 [NCGC00411231-01]
18,> 30 µM,CSCc1nc(-c2ccncc2)nn1Cc1ccc2c(c1)OCO2 [NCGC00447092-01]
19,11.1 µM,COc1cc(-c2nc3ccccc3s2)ccc1O [NCGC00390758-02]
20,2.79 µM,COc1cccc(CNC(=O)Nc2cccc(-c3ccc(N4CCOCC4)nn3)c2)c1 [NCGC00427600-01]
21,11.1 µM,Cc1ccc(C2Cn3nnc(C(=O)N4CCC(C(=O)NCc5ccncc5)CC4)c3CO2)cc1 (centres unmarked) [NCGC00449555-01]
22,18 µM,Fc1ccc(-c2cc3c(cn2)CN(Cc2ccncc2)CCN3)cc1Cl [NCGC00411256-01]
23,0.495 µM,O=C(O)CCSc1nnc(-c2ccc(Cl)cc2Cl)o1 [NCGC00103142-01]
24,0.394 µM,Cc1ccc(CSc2nc3cccnc3n2Cc2ccc(C(=O)NC3CC3)cc2)cc1 [NCGC00123844-01]

# Source: article PMC12064818, “A general assay platform to study protein pharmacology using ligand-dependent structural dynamics” (Nature Communications, 2025)
